Marks after values point to notes of the source that are not given here.

Data set [1] can be described thus: clinical. The following applies: human, in vivo. As for the experimental part:
This TQT study was a single-center, prospective, randomized, double-blind, double-dummy, placebo and active controlled, 4-way crossover study that evaluated a single therapeutic 1.5 g and a single supratherapeutic 4.5 g dose of ceftolozane/tazobactam compared with placebo. Moxifloxacin 400 mg, given orally, was used as a positive control. All subjects received study drug on 4 dosing days (Day 1, Day 5, Day 9, and Day 13) in a crossover fashion with a 3-day wash-out period between doses. Healthy men and women were randomized on a 1:1:1:1 basis to 1 of 4 dosing sequences.
Electrocardiograms were recorded (triplicate measurements) over 24 hours on Day 1, Day 5, Day 9, and Day 13 using a 12-lead Holter monitor. Blood samples for determination of ceftolozane, tazobactam, and the M1 metabolite of tazobactam levels were obtained at prespecified time intervals prior to and following each electrocardiogram (ECG) reading on dosing days. Plasma levels of ceftolozane, tazobactam, and its metabolite M1 were determined by LC/MS/MS assay.

Data set [2] in a line: clinical. The following applies: human, in vivo, 750 mg. On the procedure: (§1) This was a Phase 1, multicenter, prospective, open-label study of 750 mg ceftolozane/tazobactam (as CXA-201) administered IV in male and female adult subjects with severe renal impairment (estimated CLCR<30 mL/min) and subjects with end-stage renal disease (ESRD) on hemodialysis (HD). The primary objective of the study was to determine the PK profile of ceftolozane/tazobactam in subjects with severe renal impairment and subjects with ESRD on HD and to determine the effect of HD on the clearance of ceftolozane/tazobactam.
(§2) Subjects with severe renal impairment received a single IV 1-hour infusion of 750 mg ceftolozane/tazobactam on Day 1. […] Subjects in this cohort received an IV dose of 750 mg ceftolozane/tazobactam as a 1 hour infusion immediately after their first HD session on Day 1 (post dialysis, approximately 72 hours prior to the next HD session) and a second dose of ceftolozane/tazobactam approximately 2 hours before their second HD session on Day 4 of the study. Infusion of ceftolozane/tazobactam was completed approximately 1 hour before the start of HD.
(§3) Subjects in both cohorts had urine (if not anuric) and plasma samples collected for determination of levels of ceftolozane, tazobactam and the M1 metabolite of tazobactam; subjects in the ESRD on HD cohort also had dialysate fluid samples collected for PK assessment. Plasma, urine, and dialysate levels of ceftolozane, tazobactam, and its metabolite M1 collected over a prespecified interval were determined by LC/MS/MS assay.

The nature of data set [3]: clinical. The following applies: human, in vivo. As for the experimental part: as §1, §2, §3
All subjects underwent hemodialysis for 3 to 4 hours using a high-flux membrane (either 1.4, 1.8, or 1.9 m^2) on Days 1, 4, and 6 as scheduled. Average blood flow rate was 264 to 600 mL/min and average dialysis flow rate was either 600 or 800 mL/min for all subjects with ESRD.
All cohorts received ceftolozane/tazobactam as an intravenous infusion over 1 h. The normal, mild, and moderate renal impairment cohorts received a single dose of ceftolozane/tazobactam 1,000 mg/500 mg; the severe renal impairment cohort received a single dose of ceftolozane/tazobactam 500 mg/250 mg; the ESRD cohort received a dose of ceftolozane/tazobactam 500 mg/250 mg initiated at the end of HD on day 1 and another dose initiated 2 h before HD on day 4. Subjects with ESRD underwent HD for 3 to 4 h using a high-flux membrane as scheduled; average dialysis flow rate was 600 to 800 ml/min. Revaclear hemodialyzers (Gambro, Stockholm, Sweden) were used in 5 subjects (ultrafiltration coefficient 50 to 60 ml/h/mmHg, high flux membrane of 1.4 to 1.8 m^2) and a CT 190G hemodialyzers (Baxter Healthcare, McGaw Park, Ill.) was used in 1 subject (ultrafiltration coefficient 36 ml/h/mmHg, high flux membrane of 1.9 m^2). The average blood flow rate was 400 to 600 ml/min with the exception of one subject with rates between 264 and 400 ml/min.
Plasma concentrations of ceftolozane and tazobactam were measured prior to, during, and following administration of ceftolozane/tazobactam. Blood samples were collected 30 min prior to administration, at the end of administration and at 5, 15, and 30 min and 1, 2, 3, 5, 7, 9, 11, 15, 25, and 35 h after completion of ceftolozane/tazobactam administration in the normal, mild, and moderate renal impairment cohorts. Severe renal impairment and ESRD cohorts off HD had samples taken 30 min prior to administration and at 0.5, 1, 1.5, 2, 3, 6, 9, 12, 24, 36, and 48 h after the start of administration. On the day of and following HD, the subjects with ESRD had samples taken 30 min prior to administration and at 0.5, 1, 1.5, 2, 3, 4, 5, 6, 9, 12, 24, 36, and 44 h after the start of the administration. The entire dialysate was collected at each of the following intervals: 0 to 1, 1 to 2, 2 to 3, and 3 h to the end of dialysis. Urine for PK analysis was obtained in the normal, mild, and moderate cohorts at 0 to 2, 2 to 4, 4 to 8, 8 to 12, 12 to 24, and 24 to 36 h after the start of ceftolozane/tazobactam administration.
The source holds these as a separate data set.

Data set [4] in a line: clinical. The following applies: human, in vivo. As for the experimental part: The extent of ceftolozane exposure increases with decreasing renal function. […] In subjects with moderate renal impairment, exposure approximately doubles relative to that in subjects with normal renal function.
For tazobactam, this estimated exposure from a dose of 125 mg in subjects with severe renal impairment not on hemodialysis is similar to that achieved with 500 mg tazobactam in subjects with normal renal function (23.8 μg·h/mL).
The source holds these as a separate data set.

Data set [5] relates to baseline intra-abdominal pathogens (complicated intra-abdominal infections). As to the kind of experiment: Phase 3 study of complicated intra-abdominal infections: clinical cure at test-of-cure. It counts as in vivo, human. The following applies: ME population. On the procedure:
A total of 979 adults hospitalized with complicated intra-abdominal infections were randomized and received study medications in a multinational, double-blind study comparing CXA-201 (1.5 g IV every 8 hours) plus metronidazole (500 mg IV every 8 hours) to meropenem (1 g IV every 8 hours) for 4 to 14 days of therapy. Complicated intra-abdominal infections included appendicitis, cholecystitis, diverticulitis, gastric/duodenal perforation, perforation of the intestine, and other causes of intra-abdominal abscesses and peritonitis. The primary efficacy endpoint was clinical response at the test-of-cure (TOC) visit in the microbiological intent-to-treat (MITT) population, which included all patients who had at least 1 baseline intra-abdominal pathogen. The key secondary efficacy endpoint was clinical response at the TOC visit in the microbiologically evaluable (ME) population, which included all protocol-adherent MITT patients.

Data set [6] can be described thus: clinical. The following applies: human, in vivo. The source says: The most common adverse reactions (≥5% in either indication) occurring in patients receiving CXA-201 were nausea, headache and diarrhea. Table 3 lists adverse reactions occurring in ≥1.0% of patients receiving CXA-201 in Phase 3 clinical trials.
The majority of adverse events were mild to moderate in severity, and the incidence of treatment-limiting adverse events was <2% in both treatment groups. Epidemiology and susceptibility of organisms isolated from patients with cUTI.
The source holds these as a separate data set.

The subject of data set [7] is QT/QTc interval. It counts as in vivo, human. The following applies: 400 mg orally, positive control.
Text: The primary objectives of the study were to evaluate the effect of a single IV supratherapeutic dose of ceftolozane/tazobactam on ventricular repolarization as measured by QTc interval in healthy subjects compared to baseline-adjusted, time-matched placebo and to evaluate the change from the period-specific predose baseline of QT/QTc interval corrected by QTcI (individual QT correction subject-specific formula) across all dose groups.
Data set [8] relates to Gram-negative aerobic organisms isolated from patients with cUTI. In words: Susceptibility testing of baseline cUTI isolates, CLSI broth microdilution (tazobactam fixed 4 μg/mL). It counts as cell-based. The following applies: mMITT; ceftolozane/tazobactam breakpoint ≤8 mg/1, levofloxacin CLSI criteria. On the procedure: 764 isolates of Gram-negative aerobic organisms were isolated from 800 patients in the microbiological modified intent-to-treat population (enrolled in 20 countries in Eastern Europe, North America, South America and 5 countries outside of these regions). Susceptibility (S) testing was performed with ceftolozane/tazobactam at a fixed 4 μg/mL of tazobactam and 10 antibiotic comparators using CLSI broth microdilution methods. ESBL enzymes were identified by PCR.
For orientation: Broth dilution looks for growth in wells or tubes with falling amounts of substance.

Data set [9] concerns baseline uropathogens (complicated urinary tract infections). In words: Phase 3 study of complicated urinary tract infections incl. pyelonephritis: composite cure / microbiological eradication at test-of-cure. The format is in vivo, human. The following applies: mMITT; patients with concurrent bacteremia. The source says: The primary efficacy endpoint was the composite microbiological and clinical cure response at the test-of-cure (TOC) visit in the microbiologically modified intent-to-treat (mMITT) population, which included all patients who received study medication and had at least 1 baseline uropathogen. The key secondary efficacy endpoint was the composite microbiological and clinical cure response at the TOC visit in the microbiologically evaluable (ME) population, which included protocol-adherent mMITT patients with a urine culture at the TOC visit.

`C[C@](Cn1ccnn1)([C@@H](N)C(=O)O)S(=O)O` [M1 Metabolite] registered a Median tmax in [1] of 3.7 h. For the same compound, in data set [2], the “AUClast, mean (CV %)” value was 53.7 (25) μg · h/mL and the “AUC∞, mean (CV %)” value is 60.3 (30) μg · h/mL. Besides, in [3], the “AUC0-∞” value is given as 31.0 (23.4-34.9) μg * hr/mL; the “AUC48h Ratio (Day 3:1), median (range)” value was 0.49 (0.38-0.78); the AUC(0-t) was 26.8 (3.77-32.0) μg * hr/mL; the “AUCt0-t1, median (range)” value was 27.5 (3.8-32.7) μg * hr/mL. In [3], the “Change in Concentration” value is on record as 9.1 (0.5-14.5), the Clast is 0.41 (0.26-1.11) μg/mL, the “Clast lower than Cmax” value is approximately 26 fold and the Cmax is on record as 10.9 (1.26-15.7) μg/mL. In data set [3], the “Concentration after HD” value is 0.4 (0.3-1.1) μg/mL; the “Concentration before HD” value is recorded as 9.4 (1.4-14.9) μg/mL; the “Half-Life, median (range)” value is 368.4^a hr; the “Percent Removed” value was 93.4 (38.1-97.7) %. Further, in data set [3], the “Percent Removed, median (range)” value is recorded as 51 (22-63); the Tmax was 1.50 (0.50-1.50) hr; the half-life is on record as 1.80 (0.68-2.38) hr; the “median RDHD (percent reduction in plasma concentration during HD)” value is 93%. Also, in data set [3], the “median dialysis clearance (CLD)” value is 4.59 L/h, the removed by dialysis is listed as approximately 51% and the “t1/2 during the HD period (median)” value came out at 1.80 h. Besides, the “t1/2, geometric mean” value in [4] was determined as 6.67 h.

With `C[C@@H](O)[C@H]1C(=O)N2C(C(=O)O)=C(S[C@@H]3CN[C@H](C(=O)N(C)C)C3)[C@H](C)[C@H]12` [Meropenem, meropenem], the “Per pathogen clinical cure rate” value in [5] (Aerobic Gram-negative) was “(93.8) %”. Also, the “Per pathogen clinical cure rate” value in data set [5] (Aerobic Gram-positive) is “(91.9) %”. For the same compound, the “Per pathogen clinical cure rate” value in data set [5] (Anaerobic Gram-negative) was “(96.4) %”. Also, the “Per pathogen clinical cure rate” value in [5] (Bacteroides thetaiotaomicron) is recorded as “(93.0) %”. In addition, the “Per pathogen clinical cure rate” value in data set [5] (Klebsiella pneumoniae (CTX-M-15 ESBL-producing)) was “(0) %”. In [6], the ALT increased is 5 (1.0), the AST increased is listed as 3 (0.6), the Abdominal pain was 2 (0.4) and the Constipation was 6 (1.2). In addition, in [6], the Diarrhea was 25 (5.0), the Headache is recorded as 9 (1.8), the Nausea was 29 (5.8) and the Vomiting is given as 20 (4.0).

As for `COc1c(N2C[C@@H]3CCCN[C@@H]3C2)c(F)cc2c(=O)c(C(=O)O)cn(C3CC3)c12` [moxifloxacin], the “95% lower confidence bound on difference from baseline for QTcI vs placebo” value in [7] was “above 5 ms”.

On to `C[C@H]1COc2c(N3CCN(C)CC3)c(F)cc3c(=O)c(C(=O)O)cn1c23` [Levofloxacin, levofloxacin], for which the “gram-negative pathogens isolated at baseline that were susceptible” value in data set [8] was determined as 70.7%. For the same compound, in data set [6], the ALT increased was 5 (0.9); the AST increased is reported as 5 (0.9); the Abdominal pain is reported as 2 (0.4); the “Adverse events occurred, patients” value was determined as 34.4%. Moreover, in data set [6], the Constipation was 17 (3.2), the Diarrhea is 23 (4.3), the Headache was 26 (4.9) and the Nausea was 9 (1.7). Further, in data set [6], the Vomiting is reported as 6 (1.1), the gastrointestinal symptoms was 11.4%, the headache amounted to 4.9% and the “incidence of treatment-limiting adverse events” value was less than 2%. In data set [9], this compound yielded a composite cure rate of 57.6%.

The values are drawn from patent publication US10933053B2, “Treating infections with ceftolozane/tazobactam in subjects having impaired renal function” (MERCK SHARP & DOHME CORP., priority 2013, dated 2021).
